# Reference: patent US8293768B2, “Organic compounds” (Novartis AG, priority 2006, dated 2012)
row,Compound,melting point
1,"Cc1nc(N2CCN(CCCc3ccccc3)C2=O)sc1C(=O)NCc1cccnc1 [Example 9.27, 4-methyl-2-(2-oxo-3-(3-phenylpropyl)imidazolidin-1-yl)-N-(pyridin-3-ylmethyl)thiazole-5-carboxamide]",127 to 128 °C
2,"Cc1nc(-n2cnn(Cc3ccc(F)cc3)c2=O)sc1C(=O)NCc1cccnc1 [Example 21.3, 2-(1-(4-fluorobenzyl)-5-oxo-1H-1,2,4-triazol-4(5H)-yl)-4-methyl-N-(pyridin-3-ylmethyl)thiazole-5-carboxamide]",178 to 179 °C
3,"Cc1nc(N2CCN(Cc3ccc(C(F)(F)F)cc3)C2=O)sc1C(=O)NCc1ccccc1 [Example 9.13, N-benzyl-4-methyl-2-(2-oxo-3-(4-(trifluoromethyl)benzyl)imidazolidin-1-yl)thiazole-5-carboxamide]",127 to 128 °C
4,"Cc1nc(N2CCN(Cc3ccc(F)cc3)C2=O)sc1C(=O)NCc1ccc(C(F)F)o1 [Example 9.44, N-((5-(difluoromethyl)furan-2-yl)methyl)-2-(3-(4-fluorobenzyl)-2-oxoimidazolidin-1-yl)-4-methylthiazole-5-carboxamide]",173 to 174 °C
5,"Cc1nc(N2CCN(Cc3ccc(C(F)F)o3)C2=O)sc1C(=O)NCc1cccnc1 [Example 9.45, 2-(3-((5-(difluoromethyl)furan-2-yl)methyl)-2-oxoimidazolidin-1-yl)-4-methyl-N-(pyridin-3-ylmethyl)thiazole-5-carboxamide]",142 to 143 °C
6,"Cc1nc(-n2cnn(Cc3ccc(C(F)(F)F)cc3)c2=O)sc1C(=O)NCc1cccnc1 [Example 21, 4-methyl-2-(5-oxo-1-(4-(trifluoromethyl)benzyl)-1H-1,2,4-triazol-4(5H)-yl)-N-(pyridin-3-ylmethyl)thiazole-5-carboxamide]",156 to 158 °C
7,"Cc1nc(N2CCN(Cc3ccc(OC(F)(F)F)cc3)C2=O)sc1C(=O)NCCc1ccccc1 [Example 9.31, 4-methyl-2-(2-oxo-3-(4-(trifluoromethoxy)benzyl)imidazolidin-1-yl)-N-phenethylthiazole-5-carboxamide]",184 to 185 °C
8,"Cc1nc(-n2cnn(Cc3ccc(C(F)(F)F)o3)c2=O)sc1C(=O)NCc1cccnc1 [Example 21.6, 4-methyl-2-(5-oxo-1-((5-(trifluoromethyl)furan-2-yl)methyl)-1H-1,2,4-triazol-4(5H)-yl)-N-(pyridin-3-ylmethyl)thiazole-5-carboxamide]",124 to 125 °C
9,"Cc1nc(N2CCN(CCC3CC3)C2=O)sc1C(=O)NCc1ccccc1 [Example 9.17, N-benzyl-2-(3-(2-cyclopropylethyl)-2-oxoimidazolidin-1-yl)-4-methylthiazole-5-carboxamide]",137 to 138 °C
10,"Cc1cnc(CNC(=O)c2sc(N3CCN(Cc4ccc(C(F)(F)F)cc4)C3=O)nc2C)cn1 [Example 9.33, 4-methyl-N-((5-methylpyrazin-2-yl)methyl)-2-(2-oxo-3-(4-(trifluoromethyl)benzyl)imidazolidin-1-yl)thiazole-5-carboxamide]",172 to 173 °C
11,"Cc1nc(N2CCN(Cc3ccc(OC(F)(F)F)cc3)C2=O)sc1C(=O)NCc1cccnc1 [Example 9.22, 4-methyl-2-(2-oxo-3-(4-(trifluoromethoxy)benzyl)imidazolidin-1-yl)-N-(pyridin-3-ylmethyl)thiazole-5-carboxamide]",165 to 166 °C
12,"Cc1csc(N2CCN(Cc3ccc(C(F)(F)F)cc3)C2=O)n1 [Example 5.14, 1-(4-methylthiazol-2-yl)-3-(4-(trifluoromethyl)benzyl)imidazolidin-2-one]",102 to 103 °C
13,"Cc1nc(N2CCN(Cc3ccccc3)C2=O)sc1C(=O)NCc1ccc(F)cc1 [Example 9, 2-(3-benzyl-2-oxoimidazolidin-1-yl)-N-(4-fluorobenzyl)-4-methylthiazole-5-carboxamide]",147 to 148 °C
14,"Cc1nc(N2CCN(Cc3ccccc3)C2=O)sc1C(=O)NCc1ccccc1F [Example 9.1, 2-(3-benzyl-2-oxoimidazolidin-1-yl)-N-(2-fluorobenzyl)-4-methylthiazole-5-carboxamide]",167 to 168 °C
15,"CCCCCN1CCN(c2nc(C)c(C(=O)NCc3cccnc3)s2)C1=O [Example 9.42, 4-methyl-2-(2-oxo-3-pentylimidazolidin-1-yl)-N-(pyridin-3-ylmethyl)thiazole-5-carboxamide]",102 to 103 °C
16,"Cc1nc(N2CCN(C(=O)c3ccc(F)cc3)C2=O)sc1C(=O)NCc1ccccc1 [Example 34, N-benzyl-2-(3-(4-fluorobenzoyl)-2-oxoimidazolidin-1-yl)-4-methylthiazole-5-carboxamide]",130 to 132 °C
17,"Cc1cc(-c2sc(N3CCN(Cc4ccc(C(=O)N5CCCCC5)cc4)C3=O)nc2C)n[nH]1 [Example 40, 1-(4-methyl-5-(3-methyl-1H-pyrazol-5-yl)thiazol-2-yl)-3-(4-(piperidine-1-carbonyl)benzyl)imidazolidin-2-one]",182 to 183 °C
18,"Cc1nc(N2CCN(Cc3ccc(C(F)(F)F)cc3)C2=O)sc1CO [Example 41, 1-(5-(hydroxymethyl)-4-methylthiazol-2-yl)-3-(4-(trifluoromethyl)benzyl)imidazolidin-2-one]",153 to 154 °C
19,"Cc1csc(N2CCN(Cc3ccc(C(=O)NCc4ccccc4)cc3)C2=O)n1 [Example 8.9, N-benzyl-4-((3-(4-methylthiazol-2-yl)-2-oxoimidazolidin-1-yl)methyl)benzamide]",185 to 186 °C
20,"Cc1nc(N2CCN(Cc3cccc(F)c3)C2=O)sc1C(=O)NCc1ccccc1 [Example 23.3, N-benzyl-2-(3-(3-fluorobenzyl)-2-oxoimidazolidin-1-yl)-4-methylthiazole-5-carboxamide]",155 to 156 °C
21,"Cc1nc(N2CCN(c3ccccc3)C2=O)sc1C(=O)NCc1ccccc1 [Example 7, N-benzyl-4-methyl-2-(2-oxo-3-phenylimidazolidin-1-yl)thiazole-5-carboxamide]",234 to 236 °C
22,"Cc1nc(N2CCN(Cc3ccc(C(F)(F)F)cc3)C2=O)sc1-c1cnco1 [Example 43, 1-(4-methyl-5-(oxazol-5-yl)thiazol-2-yl)-3-(4-(trifluoromethyl)benzyl)-imidazolidin-2-one]",160 to 162 °C
23,"Cc1nc(N2CCN(Cc3ccccc3)C2=O)sc1C(=O)NCc1cc(F)ccc1F [Example 9.2, 2-(3-benzyl-2-oxoimidazolidin-1-yl)-N-(2,5-difluorobenzyl)-4-methylthiazole-5-carboxamide]",176 to 177 °C
24,"Cc1nc(N2CCN(CC3CCCC3)C2=O)sc1C(=O)NCc1cccnc1 [Example 9.38, 2-(3-(cyclopentylmethyl)-2-oxoimidazolidin-1-yl)-4-methyl-N-(pyridin-3-ylmethyl)thiazole-5-carboxamide]",142 to 143 °C
25,"Cc1nc(N2CCN(Cc3ccc(OC(F)(F)F)cc3)C2=O)sc1C(=O)NCc1ccccc1 [Example 9.23, N-benzyl-4-methyl-2-(2-oxo-3-(4-(trifluoromethoxy)benzyl)imidazolidin-1-yl)thiazole-5-carboxamide]",197 to 198 °C

# Second part, the molecule after the results:
row,melting point,Compound
1,142 to 145 °C,"Cc1nc(N2CCCN(CC3CC3)C2=O)sc1C(=O)NCc1cccnc1 [Example 32.26, 2-(3-(cyclopropylmethyl)-2-oxotetrahydropyrimidin-1(2H)-yl)-4-methyl-N-(pyridin-3-ylmethyl)thiazole-5-carboxamide]"
2,238 to 239 °C,"Cc1cc(-c2sc(N3CCN(Cc4ccc(C(F)(F)F)cc4)C3=O)nc2C)n[nH]1 [Example 38.2, 1-(4-methyl-5-(5-methyl-1H-pyrazol-3-yl)thiazol-2-yl)-3-(4-(trifluoromethyl)benzyl)imidazolidin-2-one]"
3,189 to 191 °C,"Cc1cnc(CNC(=O)c2sc(-n3cnn(Cc4ccc(F)cc4)c3=O)cc2C)cn1 [Example 31.5, 5-(1-(4-fluorobenzyl)-5-oxo-1H-1,2,4-triazol-4(5H)-yl)-3-methyl-N-((5-methylpyrazin-2-yl)methyl)thiophene-2-carboxamide]"
4,183 to 185 °C,"Cc1nc(N2CCN(Cc3ccc(F)cc3)C2=O)sc1C(=O)NCc1ccccn1 [Example 32.21, 2-(3-(4-fluorobenzyl)-2-oxoimidazolidin-1-yl)-4-methyl-N-(pyridin-2-ylmethyl)thiazole-5-carboxamide]"
5,153 to 156 °C,"Cc1nc(N2CCN(Cc3ccccc3C(=O)O)C2=O)sc1C(=O)NCc1ccccc1 [Example 25.4, 2-((3-(5-(benzylcarbamoyl)-4-methylthiazol-2-yl)-2-oxoimidazolidin-1-yl)methyl)benzoic acid]"
6,201 to 203 °C,"Cc1cc(-c2sc(N3CCN(Cc4ccc(C(F)(F)F)cc4)C3=O)nc2C)on1 [Example 38.3, 1-(4-methyl-5-(3-methylisoxazol-5-yl)thiazol-2-yl)-3-(4-(trifluoromethyl)benzyl)imidazolidin-2-one]"
7,187 to 189 °C,"Cc1nc(N2CCN(Cc3ccc(F)cc3)C2=O)sc1C(=O)NCc1ncco1 [Example 32.11, 2-(3-(4-fluorobenzyl)-2-oxoimidazolidin-1-yl)-4-methyl-N-(oxazol-2-ylmethyl)thiazole-5-carboxamide]"
8,168 to 170 °C,"Cc1cc(-n2cnn(Cc3ccc(F)cc3)c2=O)sc1C(=O)NCc1cnn(C)c1 [Example 31.7, 5-(1-(4-fluorobenzyl)-5-oxo-1H-1,2,4-triazol-4(5H)-yl)-3-methyl-N-((1-methyl-1H-pyrazol-4-yl)methyl)thiophene-2-carboxamide]"
9,225 to 228 °C,"Cc1nc(N2CCN(Cc3cccc4cccnc34)C2=O)sc1C(=O)NCc1cccnc1 [Example 32.2, 4-methyl-2-(2-oxo-3-(quinolin-8-ylmethyl)imidazolidin-1-yl)-N-(pyridin-3-ylmethyl)thiazole-5-carboxamide]"
10,265 to 267 °C,"Cc1cc(N2CCN(Cc3ccc(F)cc3)C2=O)sc1C(=O)NCc1nc2ccccc2[nH]1 [Example 55.4, N-((1H-benzo[d]imidazol-2-yl)methyl)-5-(3-(4-fluorobenzyl)-2-oxoimidazolidin-1-yl)-3-methylthiophene-2-carboxamide]"
